Like-named read-outs stand apart in the source and are kept apart here. Where a SMILES comes first, the peptide text is derived from it. [ ]: non-standard residue; d: D form. The star is where a group is joined. DOTA = O=C(O)CN1CCN(CC(=O)O)CCN(CC(=O)*)CCN(CC(=O)O)CC1; NMe1Nal = CN[C@@H](Cc1cccc2ccccc12)C(=O)O; NMeNle = CCCC[C@H](NC)C(=O)O; Sar = CNCC(=O)O
Key:
[1] = test system: AR42J xenografts; conditions: cited from earlier work
[2] = test system: A431-CCK2R tumors; conditions: A431-CCK2R/NSG mouse model; 1 hour post-injection; data shown for [177Lu]Lu-CP04; cited from earlier work
[3] = test system: CCK2R; parameters: method as in PMID 33826325; conditions: peptide with gallium coordinated DOTA at the N-terminus; previously assessed; read-out: affinity for CCK2R; cited from earlier work
[4] = target: T1, human CCK2R (Homo sapiens, UniProt P32239); test: Competitive binding against [177Lu]Lu-DOTA-CP04 in A431-CCK2R cells
T1 construct: stably transfected to over-express the human full-length CCK2R (A431-CCK2R); expressed in transfected cells
T1 sequence (P32239 1-447): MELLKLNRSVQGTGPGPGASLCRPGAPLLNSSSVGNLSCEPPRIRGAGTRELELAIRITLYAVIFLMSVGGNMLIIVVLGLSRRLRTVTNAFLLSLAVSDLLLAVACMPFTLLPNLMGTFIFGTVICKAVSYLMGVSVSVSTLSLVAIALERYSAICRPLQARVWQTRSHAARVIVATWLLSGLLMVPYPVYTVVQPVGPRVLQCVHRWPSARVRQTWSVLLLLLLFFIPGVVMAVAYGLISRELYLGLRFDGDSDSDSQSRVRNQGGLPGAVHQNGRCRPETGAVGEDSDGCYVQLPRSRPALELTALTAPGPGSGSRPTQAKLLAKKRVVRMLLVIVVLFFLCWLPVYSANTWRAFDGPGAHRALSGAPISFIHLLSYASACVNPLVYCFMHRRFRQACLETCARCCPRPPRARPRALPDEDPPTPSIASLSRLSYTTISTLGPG
Procedure: Materials and Methods: Biology […]
In Vitro CCK2R-Ligand Competitive Binding Assays
All CCK2R binding experiments were conducted using A431 (human epidermoid carcinoma) […]
cells stably transfected to over-express the human full-length CCK2R (A431-CCK2R) (gifted […]
by Dr. Elisabeth von Guggenberg, Medizinische Universität Innsbruck).[41] As a negative […]
control, A431 cells stably transfected with an empty vector were analysed simultaneously […]
(A431-EV). All A431 cells were maintained in DMEM (Gibco, Australia) media supplemented […]
with 10% foetal calf serum and 250 µg/mL G418 as described previously.[32]
The affinity of all peptides for the CCK2R was evaluated using competitive binding assays […]
Briefly, 48 hours before the experiment […]
cells were plated at a density of 300,000 cells per well in 12 well plates. On the day of the […]
experiment, linear peptides were diluted in DMEM supplemented with 1% foetal calf serum to […]
DOTA-CP04 was added to each dilution. Cells were washed twice in ice-cold binding buffer […]
(DMEM supplemented with 1% foetal calf serum) and resuspended in 1 mL of the pre-prepared […]
peptide mix before being incubated at room temperature for 1 hour. Post-incubation the media […]
was removed and kept for analysis (unbound fraction) and the cells were washed twice in ice- […]
cold PBS which was pooled with the unbound fraction. Finally, 1 M NaOH (150µL) was added […]
to the wells and allowed to incubate for 5 min before lysates were collected (bound fraction).
A small volume of lysate was kept aside to determine protein concentration using the Pierce® BCA protein assay kit (Thermo Fisher, Australia). All samples were analysed using the Perkin […]
normalised according to protein concentration. Half maximal inhibitory concentration (IC50) was determined using nonlinear regression calculated using Gr aphPad Prism Software (GraphPad Software, California, USA). […]

[5] = type: physicochemical
Procedure: Lipophilicity, expressed as the octanol-water partition coefficient, constitutes an important property in drug action, influencing both pharmacokinetic and pharmacodynamics processes. The distribution coefficient (LogD7.4) of [^68Ga]Ga-DOTA-peptides was determined by measuring radioactivity distribution in the aqueous phase (phosphate buffer pH7.4) and the organic phase (n-octanol). […]
To determine the distribution coefficient (logD 7.4), 68Ga radiolabeled peptides [68Ga]Ga-DOTA-GA4, [68Ga]Ga-DOTA-GA7, and [68Ga]Ga-DOTA-GA11–GA13 were diluted to approximately 20 pmol/mL in PBS (pH 7.4) and an equal volume of n-octanol was added. The mixture was vortexed vigorously for 10 cycles of 1 min at room temperature before being centrifuged for 6 min to separate the two phases. Equal volumes from each phase were aliquoted into individual counting tubes and analysed for 1 min using the Perkin Elmer 2480 Wizard2™ gamma counter (PerkinElmer, Massachusetts, USA). The distribution coefficient was calculated using the following equation LogD = […]. […]

[6] = in vivo; conditions: female, NSG, mouse, iv, total radioactivity; for SUV at 2 h: SUVmax
Procedure: (§1) In order to assess these promising ligands as potential theranostics, the library of [^68Ga]Ga-DOTA-peptides was evaluated using static small animal PET imaging and quantifying biodistribution studies. This study was performed to investigate tumor uptake as well as the accumulation of radioligands in other organs. Mice bearing A431-CCK2R tumors were imaged at 1- and 2 hours post tracer injection, and tracer biodistribution was evaluated at the 1 hour and 2.5 hour time points to quantify tumor uptake and retention. […]
(§2) Small Animal PET Imaging and Biodistribution Studies
(§3) Female NSG mice (age 11-14 weeks) were sourced from Animal Resources Centre, (Canning Vale, Western Australia) and were inoculated subcutaneously on the right flank with 1-3 x 106 […]
(§4) A431-CCK2R cells in PBS:Matrigel (1:1). […]
(§5) Mice were assigned to imaging and/or biodistribution groups (tumour volumes: 119-327 mm3).
(§6) The respective 68Ga labelled tracer (1.63–3.81 MBq, 170µL, 13.7–14.2 pmoles) containing vehicle solution (75µL, DMSO:Tween 80: water, 2:2:6 v/v/v) was then administered to mice intravenously via tail vein injection. Three mice were euthanized for biodistribution 1 hour post injection (n=3) and selected tissues were excised, weighed, and counted using a Capintec (Captus 4000e) gamma counter. Three mice were anaesthetised using 1.5% isoflurane and imaged at 1 hour (n=3) and 2 hours (n=3) with a G8 Small Animal PET/CT scanner (Perkin […]
(§7) Elmer/Sofie Biosciences). A 10 min static PET scan was acquired, followed immediately by a CT scan (Supplementary Data, pS51–S55). PET images were acquired using the G8 acquisition engine software and reconstructed using a 3D maximal likelihood and expectation maximization (ML-EM) algorithm. PET images were analysed using VivoQuant software, version 3.0 (inviCRO Imaging Services and Software) to quantify maximum standardised uptake value in regions of interest (SUVmax). Background regions for imaging experiments were calculated by quantitating mean standardised uptake value (SUVmean) of the abdomen and gut region. The region of interest was selected due to low uptake in abdomen/gut during imaging. After imaging the 2-hour time point, mice organs were harvested for biodistribution […]
(§8) For blocking CCK2R binding a solution of N-[(3R)-2,3-Dihydro-1-[2-(2-methylphenyl)-2-oxoethyl]-2-oxo-5-phenyl-1H-1,4-benzodiazepin-3-yl]-N′-(3-methylphenyl)-urea (YM022; Sigma Aldrich) was used. YM022 (75µL of a 1 mg/ml solution constituting DMSO:Tween 80: water, 2:2:6 v/v/v) was added to the respective 68Ga labelled tracer (1.41–3.61 MBq, 100 µL, 13.7–14.2 pmoles) and this mixture ([…]) was administered in three mice intravenously via tail vein injection and organs harvested at 1 hour post injection for biodistribution analysis, as above.
(§9) All animal experiments were performed with the approval of the Peter MacCallum Cancer Centre Animal Experimentation Ethics Committee and in accordance with the Australian code for the care and use of animals for scientific purposes, 8th Edition, 2013 (AEEC Approval

[7] = mouse, in vivo
Procedure: as §1, §2, §3, §4, §5, §6, §7, §8, §9

[8] = type: in vitro ADME, mouse
Procedure: Metabolic stability is an important determinant of the efficacy of peptide radiopharmaceuticals and their progression as promising theranostic candidates. In vitro, metabolic degradation through hepatic and renal enzymes can be assessed by utilizing liver and kidney tissue homogenates. Radiolabeled peptides [^68Ga]Ga-DOTA-GA4, and D-Ala substituted variants [^68Ga]Ga-DOTA-GA7, [^68Ga]Ga-DOTA-GA11-GA13 were incubated in liver and kidney mouse homogenates, in human serum at 37°C, and in HEPES buffer (pH 7.4) as a negative control. Following a time course experiment, the metabolites were analyzed using HPLC to quantify the % breakdown of the respective parent peptide. […]
To assess the stability of 68Ga radiolabeled peptides against enzymatic degradation, duplicate samples (750-900 pmol/mL, 2-5MBq) were incubated at 37 ℃ with pooled human serum, 15% […]
mouse kidney homogenate, 30% mouse liver homogenate or 20 mM HEPES, pH 7.3 (control).
Human blood was collected, and serum prepared using SSTII advance vacutainer tubes according to the manufacturer’s instructions (Becton Dickinson, New Jersey, USA). Mouse kidney and liver homogenates were prepared by washing the tissues in ice-cold HEPES buffer, pH 7.3 and placing them in pre-chilled tubes containing HEPES buffer and 2.38 mm metal beads (Mo-Bio Laboratories, Hilden, Germany). Tissues were homogenised using the PowerLyzer24 homogeniser (Qiagen, Hilden, Germany) according to the manufacturer’s instructions. 68Ga radiolabeled peptides were then incubated with the various lysates at 37 ℃ and samples were collected at 15, 30, 60 and 90 min. Reactions were terminated by addition of an equal volume of acetonitrile and centrifugation for 2 min at 15,000 rpm. Supernatants were diluted in water before being analysed by HPLC using a Kinetex C18 XB column (5µm

[9] = test system: A431-CCK2R tumors; test: in vivo; conditions: female, NSG, mouse, iv, 1 h
Procedure: as §1, §2, §3, §4, §5, §6, §7, §8, §9

[10] = 3 mg/kg, Uptake in A431-CCK2R Tumors, 1 hr Blocked
[11] = Uptake in A431-CCK2R Tumors, 1 hr

logD [5] | tissue to tissue ratio at 1 h [6] | SUV at 2 h [6] | tissue uptake at 1 h [7, 10] | tissue uptake at 1 h [7, 11] | tissue uptake at 2.5 h ([7]; Uptake in A431-CCK2R Tumors) | tissue uptake at 1 h ([7]; Uptake in Organs: Blood) | tissue uptake at 1 h ([7]; Uptake in Organs: Heart) | tissue uptake at 1 h ([7]; Uptake in Organs: Kidneys) | tissue uptake at 1 h ([7]; Uptake in Organs: Liver) | tissue uptake at 1 h ([7]; Uptake in Organs: Lungs) | tissue uptake at 1 h ([7]; Uptake in Organs: Muscle) | tissue uptake at 1 h ([7]; Uptake in Organs: Spleen) | tissue uptake at 1 h ([7]; Uptake in Organs: Stomach) | metabolites in kidney homogenates [8] | metabolites in liver homogenates [8] | Structure (SMILES) | also measured
– | – | – | – | – | – | – | – | – | – | – | – | – | – | – | – | CSCC[C@H](NC(=O)[C@H](Cc1c[nH]c2ccccc12)NC(=O)CNC(=O)[C@H](Cc1ccc(O)cc1)NC(=O)[C@H](C)NC(=O)[C@@H](CCC(=O)O)NC(=O)[C@@H](CCC(=O)O)NC(=O)[C@@H](CCC(=O)O)NC(=O)[C@@H](CCC(=O)O)NC(=O)[C@@H](CCC(=O)O)NC(=O)[C@H](N)CCC(=O)O)C(=O)N[C@@H](CC(=O)O)C(=O)N[C@@H](Cc1ccccc1)C(N)=O [CP04, reference compound] | Tumor uptake ([1]; AR42J xenografts, [68Ga]Ga labeled, 1 hour post-injection): 5.5 ± 0.8 [34] % ID/g; Tumor uptake [2]: 2.5 ± 0.3 [62] % ID/g; IC50 [3]: 0.76 nM; IC50 [4]: 2.33 nM; fold decrease in affinity for CCK2R without gallium coordinated DOTA at the N-terminus ([4]; linear peptide vs its Ga-DOTA form): greater than 3 fold
-2.97 ± 0.13 | 11.4 ± 0.9 | 0.38 SUV | 2.05 ± 0.14 %ID/g | 8.77 ± 1.21 %ID/g | 7.54 ± 0.5 %ID/g | 0.92 ± 0.05 %ID/g | 0.45 ± 0.03 %ID/g | 20.3 ± 0.89 %ID/g | 0.51 ± 0.01 %ID/g | 0.92 ± 0.04 %ID/g | 0.14 ± 0.01 %ID/g | 0.62 ± 0.14 %ID/g | 2.37 ± 0.12 %ID/g | no observable metabolites detected | no observable metabolites detected | CCCC[C@@H](C(=O)N[C@@H](CC(=O)O)C(=O)N(C)[C@@H](Cc1cccc2ccccc12)C(N)=O)N(C)C(=O)[C@H](Cc1c[nH]c2ccccc12)NC(=O)CN(C)C(=O)[C@H](Cc1ccc(O)cc1)NC(=O)[C@H](C)NC(=O)[C@@H](CCC(=O)O)NC(=O)[C@@H](CCC(=O)O)NC(=O)[C@@H](CCC(=O)O)NC(=O)[C@@H](CCC(=O)O)NC(=O)[C@@H](CCC(=O)O)NC(=O)[C@@H](CCC(=O)O)NC(=O)CN1CCN(CC(=O)O)CCN(CC(=O)O)CCN(CC(=O)O)CC1 [[^68Ga]Ga-DOTA-GA4, metal not drawn] ({DOTA}-[dE][dE][dE][dE][dE][dE]AY[Sar]W[NMeNle]D[NMe1Nal]-NH2) | Tumor uptake ([1]; mouse, in vivo, 1 h): 31.1 ± 5.3 % ID/g
-2.59 ± 0.02 | 19.3 ± 1.49 | 0.32 SUV | 2.53 ± 0.17 %ID/g | 9.68 ± 1.02 %ID/g | 11.4 ± 0.17 %ID/g | 0.83 ± 0.07 %ID/g | 0.4 ± 0.03 %ID/g | 12.3 ± 0.63 %ID/g | 0.44 ± 0.03 %ID/g | 0.85 ± 0.11 %ID/g | 0.16 ± 0.03 %ID/g | 0.43 ± 0.13 %ID/g | 1.81 ± 0.12 %ID/g | no observable metabolites detected | no observable metabolites detected | CCCC[C@@H](C(=O)N[C@@H](CC(=O)O)C(=O)N(C)[C@@H](Cc1cccc2ccccc12)C(N)=O)N(C)C(=O)[C@H](Cc1c[nH]c2ccccc12)NC(=O)CN(C)C(=O)[C@H](Cc1ccc(O)cc1)NC(=O)[C@H](C)NC(=O)[C@@H](CCC(=O)O)NC(=O)[C@@H](CCC(=O)O)NC(=O)[C@@H](CCC(=O)O)NC(=O)[C@@H](C)NC(=O)[C@@H](CCC(=O)O)NC(=O)[C@@H](CCC(=O)O)NC(=O)CN1CCN(CC(=O)O)CCN(CC(=O)O)CCN(CC(=O)O)CC1 [[^68Ga]Ga-DOTA-GA13, metal not drawn] ({DOTA}-[dE][dE][dA][dE][dE][dE]AY[Sar]W[NMeNle]D[NMe1Nal]-NH2) | SUVmax [9]: 1.86

Source: publication PMC10945332, “Precision peptide theranostics: developing N- to C-terminus optimized theranostics targeting cholecystokinin-2 receptor” (Theranostics, 2024)
